In US20150125526A1 (Raptor Pharmaceuticals Inc., priority 2013, published 2015):

Legend:
[1] = tested on: mice with the gene mutation for Huntington's disease; details: mouse, in vivo; cited from earlier work
Sod2 null mice [2] = details: untreated Sod2 null mice die after approximately 1 week; cited from earlier work
Sod2 null mice [3] = assay: Administration of cysteamine bitartrate to Sod2 null mice: survival, weight gain, toxicity; assay type: in vivo; details: cysteamine bitartrate 30 mg/kg, single dose
Method: Sod2 null mice provide a method for determining the efficacy in vivo of compounds having antioxidant properties, particularly those with mitochondrial efficacy. Without antioxidant efficacy, Sod2 null mice die after approximately 1 week, with antioxidant intervention, the lifespan can be extended 3-fold using powerful catalytic synthetic antioxidants such as EUK-189 (Melov et al., J Neurosci. 21(21):8348-53, 2001).
A single dose of the test agent is administered to the animals, either intraperitoneally or subcutaneously.

[4] = tested on: intracellular cystine (circulating white blood cells); details: cited from earlier work
FRDA fibroblasts = details: preincubation prior to exposure to BSO; cited from earlier work

In the case of `NCCSSCCN` [Cystamine], the “life (survival)” value [1] is given as “prolong life” and the tremors [1] is given as “alleviate tremors”.
For `CC(=O)O.CCOc1cccc(C=NCCN=Cc2cccc(OCC)c2[O-])c1[O-].[Mn]` [EUK-189], the extension of lifespan (Sod2 null mice [2]) is listed as 3 fold.
In the case of `NCCS` [cysteamine, Cysteamine (HS—CH2—CH2—NH2)], the “weight gain compared to untreated animals” value (Sod2 null mice [3]; initial experiment) is listed as “normal”, the survival analysis (Sod2 null mice [3]; preliminary experiment) is listed as “inconclusive” and the “time to observed decrease in leukocyte cystine” value ([4]; delivery of cysteamine into the small intestine (WO 2007/089670)) is listed as “within an hour”. The “depletion of intracellular cystine” value ([4]; taken regularly, measured in circulating white blood cells) was “up to 90%”.
In the case of `COC1=C(OC)C(=O)C(CCCCCCCCCCO)=C(C)C1=O` [idebenone], the “protection from cell death” value (FRDA fibroblasts) is listed as “protected cells from cell death”.
For vitamin E, the “protection from cell death” value (FRDA fibroblasts) is given as “protected cells from cell death”.
